Assays:
[1] = test system: crabgrass, large; test: Test C postemergence; type: in vivo, Digitaria sanguinalis; settings: for Crabgrass, Large plant response rating: scale 0 to 100
Outline: (§1)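 Pre- and postemergence greenhouse screen; vehicle was a non-phytotoxic solvent mix with surfactant. Preemergence: treatment applied right after sowing into loam and sand. Postemergence: treated at 1–4 leaves. Visual rating at 13–15 days, 100 = complete control.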

[2] = test system: crabgrass, large; test: Test A preemergence; type: in vivo, Digitaria sanguinalis
Outline: (§2)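 Both timings tested concurrently in loam/sand soil: preemergence by directed soil spray, postemergence on plants of 2–10 cm at the one- to two-leaf stage. Greenhouse holding period was approximately 10 days before visual injury assessment (0–100, 0 = no effect).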

[3] = test system: waterhemp; test: Test C preemergence; type: in vivo, Amaranthus rudis
Outline: as §1

[4] = test system: crabgrass, large; test: Test C preemergence; type: in vivo, Digitaria sanguinalis
Outline: as §1

[5] = test system: velvetleaf; test: Test C preemergence; type: in vivo, Abutilon theophrasti
Outline: as §1

[6] = test system: barnyardgrass; test: Test C postemergence; type: in vivo, Echinochloa crus-galli; settings: for Barnyardgrass plant response rating: scale 0 to 100
Excerpt: Seeds of plant species selected from blackgrass (Alopecurus myosuroides), ryegrass, Italian (Italian ryegrass, Lolium multiflorum), wheat (winter wheat, Triticum aestivum), galium (catchweed bedstraw, Galium aparine), corn (Zea mays), crabgrass, large (large crabgrass, Digitaria sanguinalis), foxtail, giant (giant foxtail, Setaria faberii), johnsongrass (Sorghum halepense), lambsquarters (Chenopodium album), morningglory (Ipomoea coccinea), nutsedge, yellow (yellow nutsedge, Cyperus esculentus), pigweed (redroot pigweed, Amaranthus retroflexus), ragweed (common ragweed, Ambrosia elation), soybean (Glycine max), barnyardgrass (Echinochloa crus-galli), oilseed rape (Brassica napus), waterhemp (common waterhemp, Amaranthus rudis), oat, wild (wild oat, Avena fatua), kochia (Kochia scoparia), Surinam grass (Brachiaria decumbens), foxtail, green (green foxtail, Setaria viridis), goosegrass (Eleusine indica), bromegrass, downy (downy bromegrass, Bromus tectorum), nightshade (eastern black nightshade, Solanum ptycanthum), cocklebur (common cocklebur, Xanthium strumarium), cupgrass, woolly (woolly cupgrass, Eriochloa villosa), bermudagrass (Cynodon dactylon), sunflower, (common oilseed sunflower, Helianthus annuus), Russian thistle (Salsola kali), and velvetleaf (Abutilon theophrasti) were planted into a blend of loam soil and sand and treated preemergence with test chemicals formulated in a non-phytotoxic solvent mixture which included a surfactant.
At the same time, plants selected from these crop and weed species and also chickweed (common chickweed, Stellaria media), canarygrass (littleseed canarygrass, Phalaris minor), and deadnettle (henbit deadnettle, Lamium amplexicaule), were planted in pots containing Redi-Earth® planting medium (Scotts Company, 14111 Scottslawn Road, Marysville, Ohio 43041) comprising spaghnum peat moss, vermiculite, wetting agent and starter nutrients and treated with postemergence applications of test chemicals formulated in the same manner. Plants ranged in height from 2 to 18 cm (1- to 4-leaf stage) for postemergence treatments. Treated plants and controls were maintained in a greenhouse for 13 to 15 days, after which time all species were compared to controls and visually evaluated. Plant response ratings, summarized in Table C, are based on a scale of 0 to 100 where 0 is no effect and 100 is complete control. A dash (-) response means no test result.

[7] = test system: foxtail, giant; test: Test C preemergence; type: in vivo, Setaria faberii
Outline: as §1

[8] = test system: barnyardgrass; test: Test A postemergence; type: in vivo, Echinochloa crus-galli
Outline: as §2

[9] = test system: pigweed; test: Test A postemergence; type: in vivo, Amaranthus retroflexus
Outline: as §2

[10] = test system: kochia; test: Test C postemergence; type: in vivo, Kochia scoparia; settings: for Kochia plant response rating: scale 0 to 100
Outline: as §1

[11] = test system: morningglory; test: Test A preemergence; type: in vivo, Ipomoea spp.
Outline: as §2

[12] = test system: johnsongrass; test: Test C preemergence; type: in vivo, Sorghum halepense
Outline: as §1

[13] = test system: chickweed; test: Test C postemergence; type: in vivo, Stellaria media; settings: for Chickweed plant response rating: scale 0 to 100
Outline: as §1

[14] = Postemergence, 31 g ai/ha, visually evaluated after 13 to 15 days
[15] = postemergence, 250 g ai/ha, scale 0 to 100 (0 no effect, 100 complete control)
[16] = preemergence, 125 g ai/ha, visual injury, 0 to 100 scale, approx. 10 days
[17] = preemergence, 500 g ai/ha, visual injury after approx. 10 days, 0 to 100 scale (0 no effect, 100 complete control)
[18] = preemergence, 31 g ai/ha, visual rating, scale 0 to 100 (0 no effect, 100 complete control), 13 to 15 days
[19] = preemergence, 62 g ai/ha, scale 0 to 100 (0 no effect, 100 complete control), 13 to 15 days
[20] = preemergence, 125 g ai/ha, scale 0 to 100, 0 is no effect, 100 is complete control
[21] = postemergence, 125 g ai/ha, scale 0 to 100, 0 no effect, 100 complete control
[22] = Postemergence, 500 g ai/ha, visual rating after approx. 10 days, 0 to 100 scale (0 no effect, 100 complete control)
[23] = postemergence, 125 g ai/ha, about 10 days, visual rating on 0 to 100 scale (0 no effect, 100 complete control)
[24] = Preemergence, 500 g ai/ha, 0 to 100 scale, 0 no effect, 100 complete control
[25] = Preemergence, 16 g ai/ha, scale 0 to 100
[26] = preemergence, 31 g ai/ha, scale 0 to 100 (0 no effect, 100 complete control), 13 to 15 days
[27] = preemergence, 62 g ai/ha, 13 to 15 days, scale 0 to 100, 0 = no effect, 100 = complete control

CCc1cc(-c2ccc(C(F)(F)F)cc2)nn1Cc1ccnc(C(F)(F)F)c1 [Compound 110]
Plant response rating (scale of 0 to 100 where 0 is no effect and 100 is complete control), Crabgrass, Large [1, 14]: 35
Crabgrass, Large plant response rating ([1]; postemergence, 62 g ai/ha): 40
Plant response rating, Crabgrass, Large [1, 15]: 60
Crabgrass, Large plant response rating [2, 16]: 100
Crabgrass, Large plant response rating [2, 17]: 100
Plant response rating (scale of 0 to 100), Waterhemp ([3]; Preemergence, 250 g ai/ha): 100
Waterhemp plant response rating [3, 18]: 100
Waterhemp plant response rating [3, 19]: 100
Waterhemp plant response rating [3, 20]: 100
Plant response rating (scale of 0 to 100), Crabgrass, Large ([4]; Preemergence, 250 g ai/ha): 100
Crabgrass, Large plant response rating [4, 18]: 95
Crabgrass, Large plant response rating [4, 19]: 98
Crabgrass, Large plant response rating [4, 20]: 100
Plant response rating (scale of 0 to 100), Velvetleaf ([5]; Preemergence, 250 g ai/ha): 75
Velvetleaf plant response rating [5, 18]: 50
Velvetleaf plant response rating [5, 19]: 50
Velvetleaf plant response rating [5, 20]: 70
Plant response rating (scale of 0 to 100 where 0 is no effect and 100 is complete control), Barnyardgrass [6, 14]: 20
Barnyardgrass plant response rating ([6]; postemergence, 62 g ai/ha): 35
Plant response rating, Barnyardgrass [6, 15]: 65
Plant response rating, Barnyardgrass [6, 21]: 55
Plant response rating (scale of 0 to 100), Foxtail, Giant ([7]; Preemergence, 250 g ai/ha): 100
Foxtail, Giant plant response rating [7, 18]: 98
Foxtail, Giant plant response rating [7, 19]: 98
Foxtail, Giant plant response rating [7, 20]: 100
Barnyardgrass plant response rating [8, 22]: 90
Barnyardgrass plant response rating [8, 23]: 80
Pigweed plant response rating [9, 22]: 100
Pigweed plant response rating [9, 23]: 100
Plant response rating (scale of 0 to 100 where 0 is no effect and 100 is complete control), Kochia [10, 14]: 90
Kochia plant response rating ([10]; postemergence, 62 g ai/ha): 90
Plant response rating, Kochia [10, 15]: 90
Plant response rating, Kochia [10, 21]: 90
Morningglory plant response rating [11, 16]: 90
Morningglory plant response rating [11, 17]: 100
Plant response rating (scale of 0 to 100), Johnsongrass ([12]; Preemergence, 250 g ai/ha): 95
Johnsongrass plant response rating [12, 18]: 15
Johnsongrass plant response rating [12, 19]: 30
Johnsongrass plant response rating [12, 20]: 80
Plant response rating (scale of 0 to 100 where 0 is no effect and 100 is complete control), Chickweed [13, 14]: 70
Chickweed plant response rating ([13]; postemergence, 62 g ai/ha): 70
Plant response rating, Chickweed [13, 15]: 95
Plant response rating, Chickweed [13, 21]: 90

CCCNC(=O)c1cc(CC)n(Cc2ccnc(C(F)(F)F)c2)n1 [Compound 75]
Plant response rating (scale of 0 to 100), Crabgrass, Large ([1]; Postemergence, 16 g ai/ha): 20
Crabgrass, Large plant response rating ([1]; Postemergence, 31 g ai/ha): 20
Crabgrass, Large plant response rating ([1]; postemergence, 62 g ai/ha): 25
Plant response rating, Crabgrass, Large [1, 21]: 80
Crabgrass, Large plant response rating [2, 24]: 100
Crabgrass, Large plant response rating [2, 16]: 100
Plant response rating, Waterhemp [3, 25]: 80
Waterhemp plant response rating [3, 26]: 100
Plant response rating, Waterhemp [3, 27]: 100
Waterhemp plant response rating [3, 20]: 100
Plant response rating, Crabgrass, Large [4, 25]: 100
Crabgrass, Large plant response rating [4, 26]: 100
Plant response rating, Crabgrass, Large [4, 27]: 100
Crabgrass, Large plant response rating [4, 20]: 100
Plant response rating, Velvetleaf [5, 25]: 60
Velvetleaf plant response rating [5, 26]: 75
Plant response rating, Velvetleaf [5, 27]: 100
Velvetleaf plant response rating [5, 20]: 100
Plant response rating (scale of 0 to 100), Barnyardgrass ([6]; Postemergence, 16 g ai/ha): 5
Barnyardgrass plant response rating ([6]; Postemergence, 31 g ai/ha): 10
Barnyardgrass plant response rating ([6]; postemergence, 62 g ai/ha): 10
Plant response rating, Barnyardgrass [6, 21]: 35
Plant response rating, Foxtail, Giant [7, 25]: 80
Foxtail, Giant plant response rating [7, 26]: 85
Plant response rating, Foxtail, Giant [7, 27]: 100
Foxtail, Giant plant response rating [7, 20]: 100
Barnyardgrass plant response rating ([8]; Postemergence, 125 g ai/ha, 0 to 100 scale, 0 no effect, 100 complete control): 90
Barnyardgrass plant response rating [8, 22]: 90
Pigweed plant response rating [9, 22]: 100
Pigweed plant response rating [9, 23]: 100
Plant response rating (scale of 0 to 100), Kochia ([10]; Postemergence, 16 g ai/ha): 30
Kochia plant response rating ([10]; Postemergence, 31 g ai/ha): 60
Kochia plant response rating ([10]; postemergence, 62 g ai/ha): 60
Plant response rating, Kochia [10, 21]: 90
Morningglory plant response rating [11, 24]: 90
Morningglory plant response rating [11, 16]: 90
Plant response rating, Johnsongrass [12, 25]: 65
Johnsongrass plant response rating [12, 26]: 100
Plant response rating, Johnsongrass [12, 27]: 100
Johnsongrass plant response rating [12, 20]: 100
Plant response rating (scale of 0 to 100), Chickweed ([13]; Postemergence, 16 g ai/ha): 65
Chickweed plant response rating ([13]; Postemergence, 31 g ai/ha): 65
Chickweed plant response rating ([13]; postemergence, 62 g ai/ha): 70
Plant response rating, Chickweed [13, 21]: 85

Reference: patent US20150105252A1, “SUBSTITUTED PYRAZOLES AS HERBICIDES” (E I DU PONT DE NEMOURS AND COMPANY, priority 2013, published 2015)
